Test results published in PMC11134608, “UBR5 forms ligand-dependent complexes on chromatin to regulate nuclear hormone receptor stability” (Molecular cell, 2023).
Residues, ends and D or L forms follow the SMILES beside them. *: point of attachment. Cbz = O=C(OCc1ccccc1)*

Legend:
[1] = system: RARA and UBR5; test: BRET assay of RARA and UBR5; format: cell-based, human; conditions: ± 9-cis RA, n = 3
Description: Bioluminescence resonance energy transfer (BRET) experiments were done using the NanoBRET PPI kit (Promega, N1821) according to manufacturer’s instructions.

[2] = system: 3Ub~RARA/RXRA substrate; test: In vitro ubiquitylation of pseudo-ubiquitylated RARA/RXRA; format: biochemical, human
Description: Input UBR5 variants -50 RARA/RXRA (µM)[NCOA1 peptide] uM
250 NCOA1 peptide (fluorescein-labeled probe): 5-FAM-[…]
200 LxxLLs UBR5 peptides (unlabeled): […]
Unlabelled peptide (µM)UBR5 peptide (µM)
0.0 +RARA/RXRA + retinoic acid
H A-1 A-2 Name Expressed UBR5 construct […]
round kDa WT LxxA LxxA WT 1-2799 kDa Input Backg WT LxxAA-1 LxxAA-2 ∆ UBR ∆ tandem ∆ UBA 250 […]
Figure S5. Interaction ofUBR5with NRs and LxxLL motifs,Related to Figure 3
(§1) A. RARAreporter degradation in HEK293cells withCRISPR-editedUBR5 deficientof itsHECTdomain inthepresence or absenceof ATRA (n=3 two-sided ttest).B. Ubiquitylation assayof a pseudo-primedRARA/RXRAsubstrate, generated as His-3Ub~RARA and His-3Ub~RXRA linearfusions in E.coli.Wild type UBR5 can rapidly branch and extend Ub chains on the substrate, however indicated mutants of the UBA domain severely hinder chain extension. C. Fluorescence polarization (FP) experiment showing forward titrationof RARA/RXRA intoa fluorescein-labelled NCOA1 peptide (residues 686-698). […]
Fluorescence polarization experiments depicting competitive reverse titrationwith indicated peptides against a pre-formed complex of RARA/RXRA with a fluorescein-labelled peptide of NCOA1 (residues 686-698) in the presence of ATRA. Titrations were performed in duplicate and binding constants determined after converting fluorescence polarization values tofraction bound of originalcomplex. […]

[3] = system: UBR5-RARA; test: UBR5 pull-down competition with NCOA1; format: binding, human; conditions: NCOA at 0.5, 5 and 10× molar excess relative to UBR5, with ATRA
Description: Figure 2. UBR5 competes with nuclear coactivators for the conserved hydrophobic cleft of NRs (A) Schematic of RARA domain architecture; NTD, N-terminal domain; DBD, DNA-binding domain; LBD, ligand-binding domain. (B) Degradation of RARA reporters containing 4–5 surface-exposed alanine mutations per helix, relative to untreated (DMSO) (n = 3 two-sided t test). See Figure S2 for detailed amino acid substitutions. (C) Degradation of RARA reporters containing glutamate-substituted residues within the H3/H4 hydrophobic cleft. (n = 3 two-sided t test). […] FLAG-UBR5 (15 pmol) was pre-bound to a large excess of His-RARA in the presence of ATRA and excess RARA protein washed away. Increasing amounts of full-length NCOA1 protein were then added to outcompete the UBR5-RARA interaction. NCOA was titrated with a 0.5, 5, and 10× molar excess relative to UBR5. (F) Relative abundances in RARA-GFP IP-MS of NCOR1, NCOA1, and UBR5 normalized to RARA abundance following 0, 4, and 16 h of ATRA treatment.
12 μL of FLAG M2 slurry were equilibrated with binding buffer (25 mM HEPES pH 7.4, 125 mM NaCl, 0.05% TWEEN-20). The resin was pelleted and excess buffer removed. 60 μL of fresh binding buffer was re-added, followed by addition of 15 pmol (2.5 μL ofa6 μM solution) of purified FLAG-UBR5 protein and incubated on a rotating wheel at 4°C for 60–90 minutes. […]

[4] = system: RARA/RXRA heterodimer (pre-formed complex with fluorescein-labelled NCOA1 peptide); test: Fluorescence polarization, competitive reverse titration of unlabeled peptides; format: binding, human; conditions: with ATRA; 10 nM tracer, 0.5 μM RARA/RXRA, competitor 0–85 μM; 20 mM HEPES pH 7.4, 110 mM NaCl; room temperature; variable slope fit; duplicates
Procedure: Fluorescein-labelled NCOA1 peptide residues […] (Flc-[…]) was used as a fluorescent tracer as described previously.[71] Increasing amounts of RARA/RXRA heterodimer (0.1–26 μM final concentration) were mixed with tracer (10 nM final concentration) in a 384-well microplate (784076, Greiner) at room temperature. The interaction was measured in a final buffer containing 20 mM HEPES pH 7.4, 110 mM NaCl, 500 μM TCEP, 1% Glycerol, 0.1% (v/v) pluronic acid with or without 100 μM all-trans-retinoic acid. A PHERAstar FS microplate reader (BMG Labtech) equipped with a fluorescence polarization filter unit was used to determine changes in fluorescence polarization. The polarization units were converted to fraction bound, defined as (mPfree – mP) / (mPfree – mPbound), as described previously.[72] […]
as §1, with “C.” left out

[5] = system: ATRA-induced gene expression in NB4 cells; test: RNA sequencing of NB4 cells; format: cell-based, human; conditions: NB4, MG132 or DMSO, ATRA 0, 8, 24 h
Procedure: Cell lines were expanded, treated with ligand, and incubated at 37C. Cells were pelleted by centrifugation for 5 minutes, washed with cold PBS, and RNA was isolated by RNeasy kit (Qiagen) per manufacturer’s instructions. RNA was sent to Novogene for library preparation and sequencing, or prepared for sequencing (NEBNext, New England Biolabs) and sequenced on an Illumina NextSeq 550 sequencer.
Paired-end reads were aligned to the hg38.p13[81],[82] reference genome with the STAR[83] (v5.2.7b) aligner as part of the RSEM[99] command line tool. Gene transcript abundance was further quantified from aligned fragments using RSEM to generate a gene-by-sample matrix of expected counts. Differential expression was tested, as with the ChIP-seq data, using the DESeq[88],[93]2 and ashr[94] pipeline, this time calculating sample-specific scale factor offset using the method of median-ratio as implemented in the R package EBSeq[100] (v1.36.0). For plotting in heatmaps, genes were selected based on ChIP-seq peak annotation and subset.

## CC1=C(/C=C/C(C)=C\C=C\C(C)=C\C(=O)O)C(C)(C)CCC1 [RA]
[1]
  RARA/UBR5 BRET luminescence: exhibited more luminescence than controls

## UBR5^Δ83–347: UBR5 lacking the UBA insertion entirely
[2]
  processivity in ubiquitylation assay: severely hindered processivity in ubiquitylation assays

## UBR5^V196K: UBR5 with a substitution at the ubiquitin-binding interface
[2]
  processivity in ubiquitylation assay: severely hindered processivity in ubiquitylation assays

## NCOA1: full-length NCOA1 protein
[3]
  UBR5 binding to RARA in presence of excess NCOA1: impaired by an excess of full-length NCOA1

## LQPYLRELLSAKD [UBR5 aa1098]
[4]
  Kapp: 41.4 ± 2.8 µM

## CC(C)C[C@@H](C=O)NC(=O)[C@H](CC(C)C)NC(=O)[C@H](CC(C)C)NC(=O)OCc1ccccc1 [MG132] (Cbz-Leu-Leu-Leu-aldehyde)
[5]
  effect of proteasomal inhibition (MG132) on ATRA-induced transcription: strongly decreased ATRA-induced transcription

## RLDLLYRLLTATN [UBR5 aa1251]
[4]
  Kapp: 3.1 ± 0.1 µM
